Laboratory results as given in patent US12472282B2, “Bioengineered wharton's jelly derived extracellular matrix” (University of Rochester, priority 2018, dated 2025).

Tested on: primary acute myeloid leukemia (AML) cells
Assay: Response to chemotherapy following treatment with doxorubicin, DWJM culture vs suspension culture
Format: cell-based, human
Method: AML patient samples collected by leukapheresis were cultured in DWJM disks for one week. Non-adherent cells were first aspirated and adherent cells were separately isolated and assessed for viability, apoptosis, and colony forming unit (CFU). RNA sequencing was performed at the end of culture. Response to chemotherapy following treatment with doxorubicin was also assessed. For all studies, DWJM-adherent and non-adherent cells were compared to suspension culture controls. Metabolic pathway analyses were conducted using enzyme-linked immunosorbent assay (ELISA). One-tailed t-test was used for comparison between the groups

## COc1cccc2c1C(=O)c1c(O)c3c(c(O)c1C2=O)C[C@@](O)(C(=O)CO)C[C@@H]3O[C@H]1C[C@H](N)[C@H](O)[C@H](C)O1 [doxorubicin]
co-culture with DWJM, P=0.047
  CFU activity after doxorubicin: 3.3 /300,000 cells
Suspension culture cells
  CFU activity after doxorubicin: 0.3 /300,000 cells
